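Tested at 5 concentrations; 48 h exposure; 96-well plates; endpoints linearly interpolated, else capped at highest concentration. The concentration for 50% growth inhibition is given as GI50.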 The source made the active and inactive calls. Cut-off read from the data, not from the text of the source: active = GI50 up to about 1.1 µM and inactive = higher.
Tests used:
Assay in all cases: NCI-60 cell line screen, 48 h
786-0 = test system: 786-0
COLO 205 = test system: COLO 205
EKVX = test system: EKVX
HCC 2998 = test system: HCC 2998
HCT-116 = test system: HCT-116
Hs-578T = test system: Hs-578T
K562 = test system: K562
KM12 = test system: KM12
MCF7 = test system: MCF7
MOLT-4 = test system: MOLT-4
NCI-H23 = test system: NCI-H23
SF-295 = test system: SF-295
SK-MEL-28 = test system: SK-MEL-28
SN12C = test system: SN12C
UACC-257 = test system: UACC-257
UACC-62 = test system: UACC-62
UO-31 = test system: UO-31
SF-539 = test system: SF-539
SNB-75 = test system: SNB-75

Structure (SMILES) | GI50 (786-0) | GI50 (COLO 205) | GI50 (EKVX) | GI50 (HCC 2998) | GI50 (HCT-116) | GI50 (Hs-578T) | GI50 (K562) | GI50 (KM12) | GI50 (MCF7) | GI50 (MOLT-4) | GI50 (NCI-H23) | GI50 (SF-295) | GI50 (SK-MEL-28) | GI50 (SN12C) | GI50 (UACC-257) | GI50 (UACC-62) | GI50 (UO-31) | GI50 (SF-539) | GI50 (SNB-75)
CC(C)(C)OC(=O)NCCCCC1NC(=O)[C@@H]2Cc3c([nH]c4ccccc34)C(C3CCCCC3)N2C1=O (some centres not stated) | 27 µM (inactive) | 20.2 µM (inactive) | 33.7 µM (inactive) | 13.9 µM (inactive) | 29.4 µM (inactive) | 23.6 µM (inactive) | 30.8 µM (inactive) | 23.6 µM (inactive) | 30.6 µM (inactive) | 5.28 µM (inactive) | 49.8 µM (inactive) | 19.8 µM (inactive) | 85.1 µM (inactive) | 39.1 µM (inactive) | 35.7 µM (inactive) | 32.4 µM (inactive) | 35.1 µM (inactive) | – | –
NS(=O)(=O)c1ccc(-c2ccc([As](=O)(O)O)cc2)cc1 | > 100 µM (inactive) | > 100 µM (inactive) | > 100 µM (inactive) | – | > 100 µM (inactive) | > 100 µM (inactive) | > 100 µM (inactive) | > 100 µM (inactive) | > 100 µM (inactive) | > 100 µM (inactive) | > 100 µM (inactive) | > 100 µM (inactive) | > 100 µM (inactive) | > 100 µM (inactive) | 32.6 µM (inactive) | > 100 µM (inactive) | > 100 µM (inactive) | > 100 µM (inactive) | 11.6 µM (inactive)
COc1cc([C@@H]2c3cc4c(cc3[C@H](OC3OC5COC(C(C)C)OC5C(O)C3O)C3COC(=O)[C@@H]32)OCO4)cc(OC)c1O (some centres not stated) | 10 µM (inactive) | 6.82 µM (inactive) | 17.6 µM (inactive) | – | 3.85 µM (inactive) | 9.71 µM (inactive) | 8.61 µM (inactive) | 16.1 µM (inactive) | 3.6 µM (inactive) | 3.17 µM (inactive) | 4.03 µM (inactive) | 8.22 µM (inactive) | – | – | 8.87 µM (inactive) | 11.1 µM (inactive) | 10.2 µM (inactive) | 2.72 µM (inactive) | –
CCC(C)C1=C(OC(C)=O)[N+]2([O-])Oc3ccc(-c4c(OC(C)=O)c(OC(C)=O)c(-c5ccc(OC(C)=O)cc5)c(OC(C)=O)c4OC(C)=O)cc3OC2(C(C)CC)C(=O)N1OC(C)=O (configuration not stated) | 10.5 µM (inactive) | 18.8 µM (inactive) | 16.1 µM (inactive) | – | 9.62 µM (inactive) | – | 12.2 µM (inactive) | 19.3 µM (inactive) | 19.6 µM (inactive) | 11.1 µM (inactive) | 20.6 µM (inactive) | 8.69 µM (inactive) | 19.5 µM (inactive) | 34.3 µM (inactive) | 30.5 µM (inactive) | 9.06 µM (inactive) | 30.6 µM (inactive) | 42.3 µM (inactive) | 14.8 µM (inactive)
O=S1(=O)OCCOS(=O)(=O)C1(F)Cc1ccccc1 | > 100 µM (inactive) | > 100 µM (inactive) | > 100 µM (inactive) | > 100 µM (inactive) | > 100 µM (inactive) | > 100 µM (inactive) | > 100 µM (inactive) | – | – | > 100 µM (inactive) | > 100 µM (inactive) | > 100 µM (inactive) | > 100 µM (inactive) | > 100 µM (inactive) | – | > 100 µM (inactive) | > 100 µM (inactive) | > 100 µM (inactive) | > 100 µM (inactive)
Clc1ccccc1C(SCc1ccccc1)SCc1ccccc1 | > 100 µM (inactive) | > 100 µM (inactive) | 39.6 µM (inactive) | > 100 µM (inactive) | > 100 µM (inactive) | – | > 100 µM (inactive) | 93.8 µM (inactive) | > 100 µM (inactive) | > 100 µM (inactive) | > 100 µM (inactive) | > 100 µM (inactive) | > 100 µM (inactive) | > 100 µM (inactive) | > 100 µM (inactive) | 94.4 µM (inactive) | > 100 µM (inactive) | > 100 µM (inactive) | 41.8 µM (inactive)
N=C1OC(CN2CCN(c3ccccc3)CC2)CN1C(=O)Nc1ccccc1 (configuration not stated) | > 100 µM (inactive) | > 100 µM (inactive) | > 100 µM (inactive) | > 100 µM (inactive) | > 100 µM (inactive) | > 100 µM (inactive) | 60.5 µM (inactive) | > 100 µM (inactive) | > 100 µM (inactive) | > 100 µM (inactive) | > 100 µM (inactive) | > 100 µM (inactive) | > 100 µM (inactive) | > 100 µM (inactive) | > 100 µM (inactive) | > 100 µM (inactive) | > 100 µM (inactive) | – | –
CCC1(CC)C(=O)CC[C@@]2(C)C1=CC[C@H]1[C@@H]3CC[C@H](O)[C@@]3(C)CC[C@@H]12 | 15.5 µM (inactive) | 28 µM (inactive) | 28.5 µM (inactive) | – | 22.2 µM (inactive) | 24.4 µM (inactive) | 16.4 µM (inactive) | 32.1 µM (inactive) | – | 25.6 µM (inactive) | 48.9 µM (inactive) | 22.8 µM (inactive) | > 100 µM (inactive) | 16.7 µM (inactive) | 26.7 µM (inactive) | 54.7 µM (inactive) | 18.4 µM (inactive) | 29.2 µM (inactive) | 35.6 µM (inactive)
Cc1ccc(S(=O)(=O)N(CCN2C(=O)c3ccccc3C2=O)c2cc3c4c(c2)Oc2cc(N(CCN5C(=O)c6ccccc6C5=O)S(=O)(=O)c5ccc(C)cc5)cc5c2C4(C)c2c(cc(N(CCN4C(=O)c6ccccc6C4=O)S(=O)(=O)c4ccc(C)cc4)cc2O5)O3)cc1 | > 100 µM (inactive) | > 100 µM (inactive) | > 100 µM (inactive) | – | > 100 µM (inactive) | > 100 µM (inactive) | > 100 µM (inactive) | > 100 µM (inactive) | > 100 µM (inactive) | > 100 µM (inactive) | – | > 100 µM (inactive) | > 100 µM (inactive) | > 100 µM (inactive) | > 100 µM (inactive) | > 100 µM (inactive) | > 100 µM (inactive) | > 100 µM (inactive) | > 100 µM (inactive)
COC(=O)c1c(C)c2c(c(C)c1C(=O)OC)-c1c(C)ccc3ccc(C)c-2c13 | 19.1 µM (inactive) | 34.4 µM (inactive) | 66.4 µM (inactive) | – | 50.1 µM (inactive) | 23.7 µM (inactive) | 3.03 µM (inactive) | 9.38 µM (inactive) | > 78.3 µM (inactive) | 14.4 µM (inactive) | – | 11.4 µM (inactive) | 68.2 µM (inactive) | > 93.8 µM (inactive) | > 54.5 µM (inactive) | 47.5 µM (inactive) | 47.8 µM (inactive) | 51.5 µM (inactive) | 27.8 µM (inactive)
FC(F)=C(c1ccc(-c2ccc(Cl)cc2)cc1)C(F)(F)F | 19.8 µM (inactive) | 17.9 µM (inactive) | 19.7 µM (inactive) | – | 17.5 µM (inactive) | 26.1 µM (inactive) | 26.2 µM (inactive) | 19.3 µM (inactive) | – | 32.3 µM (inactive) | 17.5 µM (inactive) | 22.5 µM (inactive) | 12.4 µM (inactive) | 20.3 µM (inactive) | 20 µM (inactive) | 19 µM (inactive) | 16.4 µM (inactive) | 20.7 µM (inactive) | 11 µM (inactive)
O=C(c1ccc2ccccc2c1)C1(I)S(=O)(=O)OCCOS1(=O)=O | > 100 µM (inactive) | > 100 µM (inactive) | > 100 µM (inactive) | > 100 µM (inactive) | > 100 µM (inactive) | – | > 100 µM (inactive) | > 100 µM (inactive) | > 100 µM (inactive) | > 100 µM (inactive) | > 100 µM (inactive) | 0.0102 µM (active) | > 100 µM (inactive) | > 100 µM (inactive) | – | – | > 100 µM (inactive) | – | –
Nc1nc(N)c2c(n1)CCC(S(=O)(=O)c1ccc3ccccc3c1)C2 (configuration not stated) | 23.1 µM (inactive) | 8.38 µM (inactive) | 31.8 µM (inactive) | 13.6 µM (inactive) | 11.6 µM (inactive) | – | – | 6.08 µM (inactive) | 10.1 µM (inactive) | 2 µM (inactive) | 2.53 µM (inactive) | 1.66 µM (inactive) | 27.7 µM (inactive) | 7 µM (inactive) | 12.5 µM (inactive) | – | 5.45 µM (inactive) | 3.8 µM (inactive) | –
C=C[C@@]1(C)CC(=O)[C@]2(O)[C@@]3(C)[C@@H](OC(C)=O)CCC(C)(C)[C@@H]3[C@H](O)[C@H](OC(C)=O)[C@@]2(C)O1 | 83.6 µM (inactive) | – | > 100 µM (inactive) | > 100 µM (inactive) | > 100 µM (inactive) | – | > 100 µM (inactive) | 13.4 µM (inactive) | > 100 µM (inactive) | > 100 µM (inactive) | > 100 µM (inactive) | > 100 µM (inactive) | > 100 µM (inactive) | > 100 µM (inactive) | > 100 µM (inactive) | > 100 µM (inactive) | > 100 µM (inactive) | > 100 µM (inactive) | 27.6 µM (inactive)
CCN(CC)CCN1C(=O)CC2[C@@H]3CCc4cc(OC)ccc4C3CC[C@]2(C)C1=O (some centres not stated) | 17.3 µM (inactive) | 19.5 µM (inactive) | – | – | > 10 µM (inactive) | – | 15.2 µM (inactive) | 33.5 µM (inactive) | – | > 10 µM (inactive) | 91.2 µM (inactive) | 18.4 µM (inactive) | 17.9 µM (inactive) | – | 14.9 µM (inactive) | 19.3 µM (inactive) | 17.4 µM (inactive) | 0.0134 µM (active) | 33 µM (inactive)
O=C(/C=C/c1ccc(O)cc1)NCCc1ccc(O)cc1 [N-P-COUMAROYL TYRAMINE] | > 12.5 µM (inactive) | > 12.5 µM (inactive) | 3.05 µM (inactive) | – | > 12.5 µM (inactive) | > 12.5 µM (inactive) | 5.6 µM (inactive) | > 12.5 µM (inactive) | > 12.5 µM (inactive) | – | 7.16 µM (inactive) | 8.13 µM (inactive) | > 12.5 µM (inactive) | 5 µM (inactive) | > 12.5 µM (inactive) | 7.41 µM (inactive) | 11.1 µM (inactive) | 3.13 µM (inactive) | –

— ChEMBL document CHEMBL1201862, “PubChem BioAssay data set” (2004)
